Data published in article PMC7044277 (Nature Communications, 2020).
Values joined by “and” are separate entries in the source; they are usually repeats but may differ in a detail not shown here. Equal entries are not always repeated.

Legend:
5HT1F = biological target: T1, 5HT1F (Homo sapiens, UniProt P30939); test: β-arrestin2 recruitment (Tango); type: cell-based; conditions: for β-arrestin2 recruitment response, agonist mode (single replicate values): Fig_S10j; for Fig_S10j dose-response, drug alone (agonist mode), β-arrestin2 recruitment: single replicate values; on β-arrestin2 recruitment response, agonist mode (single replicate values): reference of the scale not given here
T1 construct: expressed in transfected cells; host or cells: HTLA cells expressing TEV-fused β-arrestin2
T1 sequence (P30939 1-366): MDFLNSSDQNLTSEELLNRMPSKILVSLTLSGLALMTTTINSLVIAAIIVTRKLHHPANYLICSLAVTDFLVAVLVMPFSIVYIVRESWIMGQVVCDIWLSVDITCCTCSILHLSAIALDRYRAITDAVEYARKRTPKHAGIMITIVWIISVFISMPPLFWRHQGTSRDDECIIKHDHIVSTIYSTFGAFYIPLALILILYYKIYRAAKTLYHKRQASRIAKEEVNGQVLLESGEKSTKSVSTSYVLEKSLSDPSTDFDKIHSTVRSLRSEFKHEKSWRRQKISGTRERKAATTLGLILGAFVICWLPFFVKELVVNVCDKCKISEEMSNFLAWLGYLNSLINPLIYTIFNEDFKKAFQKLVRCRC

DRD4 (D4.4 variant) = biological target: T2, DRD4 (D4.4 variant) (Homo sapiens, UniProt P21917); test: β-arrestin2 recruitment (Tango); type: cell-based; conditions: for Fig_S10c concentration-response source data, compound alone (replicates): agonist mode
T2 sequence (P21917 1-419): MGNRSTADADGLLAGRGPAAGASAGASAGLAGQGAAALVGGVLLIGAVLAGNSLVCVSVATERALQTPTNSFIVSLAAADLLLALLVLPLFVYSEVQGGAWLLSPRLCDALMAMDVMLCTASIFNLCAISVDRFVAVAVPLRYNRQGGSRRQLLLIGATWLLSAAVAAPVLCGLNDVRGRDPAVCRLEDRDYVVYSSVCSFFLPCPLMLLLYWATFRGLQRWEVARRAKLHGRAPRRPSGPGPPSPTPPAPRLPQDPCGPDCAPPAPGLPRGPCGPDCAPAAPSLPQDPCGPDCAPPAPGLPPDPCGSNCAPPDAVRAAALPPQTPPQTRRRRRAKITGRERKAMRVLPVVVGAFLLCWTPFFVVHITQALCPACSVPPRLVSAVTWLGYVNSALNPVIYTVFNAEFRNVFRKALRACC

## CCOc1cccc2cc([C@H](C)NCC3(O)CCCCC3)oc12 [O4SE6]
5HT1F; Log[Drug] -8
  β-arrestin2 recruitment response, agonist mode (single replicate values): 1.302 and -0.3873 and 2.074 and -2.101 and -1.406 and -2.308 and -1.812 and -0.8607 and -0.04463
5HT1F; Log[Drug] -8.52
  β-arrestin2 recruitment response, agonist mode (single replicate values): 0.304 and 0.5074 and 1.87 and 1.981 and -1.055 and -1.27 and -1.358 and -1.238 and -0.4845
5HT1F; Log[Drug] -9
  β-arrestin2 recruitment response, agonist mode (single replicate values): 0.9904 and 0.706 and 0.885 and 0.6945 and 9.325 and -1.862 and -2.066 and -0.6583 and 0.2247
5HT1F; Log[Drug] -9.52
  β-arrestin2 recruitment response, agonist mode (single replicate values): 3.047 and -0.8801 and 2.567 and 4.29 and 2.342 and -1.433 and -1.621 and -2.0051 and -0.408
5HT1F; Log[Drug] -10
  β-arrestin2 recruitment response, agonist mode (single replicate values): 4.819 and -0.0956 and 1.856 and -1.573 and -2.24 and -0.1941 and -0.1562 and -0.3459 and -1.4329
5HT1F; Log[Drug] -10.52
  β-arrestin2 recruitment response, agonist mode (single replicate values): 0.4927 and 0.6104 and 0.5001 and 1.318 and -2.635 and -1.961 and -1.313 and -0.102 and -0.1036
5HT1F; Log[Drug] -11
  β-arrestin2 recruitment response, agonist mode (single replicate values): 1.294 and -0.1888 and 1.488 and -1.416 and -3.18 and -0.3234 and -0.2837 and 1.1189 and -0.7348
5HT1F; Log[Drug] -11.52
  β-arrestin2 recruitment response, agonist mode (single replicate values): 2.172 and 1.385 and 0.6864 and -1.406 and -1.13 and -0.05788 and -1.691 and -2.064 and -2.201
5HT1F; Log[Drug] -12
  β-arrestin2 recruitment response, agonist mode (single replicate values): 0.3211 and 1.218 and -0.05883 and -2.747 and -2.758 and -0.03745 and -0.9037 and -1.7453 and 2.037
5HT1F; Log[Drug] -5
  Fig_S10j dose-response, drug alone (agonist mode), β-arrestin2 recruitment: 0.3849 and -0.983 and 0.7697 and -1.569 and -1.842 and 2.318 and -0.9197 and -0.3475 and -1.47
5HT1F; Log[Drug] -5.52
  Fig_S10j dose-response, drug alone (agonist mode), β-arrestin2 recruitment: 7.151 and 5.788 and -0.505 and -0.4698 and 0.6264 and -0.6469 and -1.685 and -0.2789 and -1.819
5HT1F; Log[Drug] -6
  Fig_S10j dose-response, drug alone (agonist mode), β-arrestin2 recruitment: 2.525 and 0.2795 and 1.682 and -0.463 and -1.025 and 2.25 and -2.251 and -0.6646 and -0.8511
5HT1F; Log[Drug] -6.52
  Fig_S10j dose-response, drug alone (agonist mode), β-arrestin2 recruitment: 3.045 and 0.7943 and 0.9757 and -1.712 and -2.09 and -1.297 and -2.011 and -0.3459 and -1.811
5HT1F; Log[Drug] -7
  Fig_S10j dose-response, drug alone (agonist mode), β-arrestin2 recruitment: 1.287 and -0.1961 and 3.15 and 1.852 and -1.692 and -1.42 and -0.2821 and 1.046 and -0.8687
5HT1F; Log[Drug] -7.52
  Fig_S10j dose-response, drug alone (agonist mode), β-arrestin2 recruitment: -0.2819 and 1.395 and 1.76 and -1.559 and -1.409 and -1.542 and -1.242 and 0.6631 and 0.4096
DRD4 (D4.4 variant); DRD4, Tango, read-out: EC50 ± SEM
  EC50: > 10 µM
DRD4 (D4.4 variant); Log[Drug] -5
  Fig_S10c concentration-response source data, compound alone (replicates): 6.217 and 2.763 and 2.001 and 1.287 and 1.775 and 4.058 and 4.003 and 0.06427 and 0.2106
DRD4 (D4.4 variant); Log[Drug] -5.52
  Fig_S10c concentration-response source data, compound alone (replicates): 2.6039 and -1.106 and -1.946 and -0.4701 and 1.404 and 2.39 and 0.8979 and 0.0552 and 0.08381
DRD4 (D4.4 variant); Log[Drug] -6
  β-arrestin2 recruitment response at DRD4 (source data, replicate values): 2.086
  Fig_S10c concentration-response source data, compound alone (replicates): 3.584 and -1.188 and -0.584 and -0.6588 and 0.8796 and 1.83 and 0.7762 and 0.03516 and 0.171
DRD4 (D4.4 variant); Log[Drug] -6.52
  β-arrestin2 recruitment response at DRD4 (source data, replicate values): 1.505 and 1.478 and 5.593 and -1.936 and -0.8155 and 0.5983 and 2.508 and 1.037 and -0.4712
  Fig_S10c concentration-response source data, compound alone (replicates): 1.007 and 4.325 and 1.323 and -0.8974 and 1.527 and -0.05366 and -0.1047 and 0.03541 and 0.08444
DRD4 (D4.4 variant); Log[Drug] -7
  β-arrestin2 recruitment response at DRD4 (source data, replicate values): 2.288 and 4.238 and 0.7634 and -1.02 and 3.3404 and -2.026 and 1.575 and 0.945 and -0.6741
  Fig_S10c concentration-response source data, compound alone (replicates): 1.079 and -1.731 and -1.221 and -1.369 and 0.6898 and 0.678 and 1.948 and 0.1059 and 0.1355
DRD4 (D4.4 variant); Log[Drug] -7.52
  β-arrestin2 recruitment response at DRD4 (source data, replicate values): 1.649 and 0.1326 and 3.251 and -1.741 and -0.5217 and -0.1424 and -0.5236 and 0.6819 and 0.4869
DRD4 (D4.4 variant); Log[Drug] -8
  β-arrestin2 recruitment response at DRD4 (source data, replicate values): 0.1559 and 0.6003 and -0.215 and 3.989 and -1.66 and -2.089 and 1.626 and 2.253 and 0.1073
DRD4 (D4.4 variant); Log[Drug] -8.52
  β-arrestin2 recruitment response at DRD4 (source data, replicate values): 0.09319 and 0.08781 and 1.238 and -1.884 and -2.01 and 2.354 and 0.733 and 0.839 and 0.1558
DRD4 (D4.4 variant); Log[Drug] -9
  β-arrestin2 recruitment response at DRD4 (source data, replicate values): 1.025 and 0.8745 and 0.8477 and 1.633 and -1.008 and -1.74 and 1.682 and 0.09555 and 2.31
DRD4 (D4.4 variant); Log[Drug] -9.52
  β-arrestin2 recruitment response at DRD4 (source data, replicate values): 1.007 and 1.419 and 7.892 and -0.8689 and -1.296 and 0.8476 and 1.4149 and 0.894 and 0.2094
DRD4 (D4.4 variant); Log[Drug] -10
  β-arrestin2 recruitment response at DRD4 (source data, replicate values): 1.797 and 0.7921 and 2.561 and -1.944 and -1.43 and -2.445 and 0.6793 and 0.5811 (2×)
DRD4 (D4.4 variant); Log[Drug] -10.52
  β-arrestin2 recruitment response at DRD4 (source data, replicate values): 1.808 and 0.4319 and 2.3763 and 1.191 and 0.9847 and -1.294 and 0.1099 and -0.2474 and -0.3547
DRD4 (D4.4 variant); Log[Drug] -11
  β-arrestin2 recruitment response at DRD4 (source data, replicate values): 0.1559 and 1.383 and -0.06631 and 0.9882 and -1.444 and -1.642 and 1.271 and -0.5746 and 1.065
DRD4 (D4.4 variant); Log[Drug] -11.52
  β-arrestin2 recruitment response at DRD4 (source data, replicate values): -0.1308 and 0.7778 and 1.385 and -1.934 and -1.503 and -0.7069 and -0.466 and 1.013 and -1.209
